Test system: MM.1S cells
Experiment: Proliferation inhibition (IC50) in MM.1S cells, cell viability assay
Conditions: Homo sapiens, MM1.S, 72 h, read-out: IC50 (nM), proliferation inhibitory activity of MM.1S cells (half inhibitory concentration)

| Compound | IC50 |
| --- | --- |
| CN(CCCCCCCSc1cccc2c1CN(C1CCC(=O)NC1=O)C2=O)C1CC1 (stereo not shown) [SIAIS1222103, 3-(4-((7-(cyclopropyl(methyl)amino)heptyl)thio)-1-oxoisoindolin-2-yl)piperidine-2,6-dione] | 0.25 nM |
| O=C1CCC(N2Cc3c(SCCCCCCCNC4CC4)cccc3C2=O)C(=O)N1 (stereo not shown) [SIAIS1222105, 3-(4-((7-(cyclopropylamino)heptyl)thio)-1-oxoisoindolin-2-yl)piperidine-2,6-dione] | 0.181 nM |
| O=C1CCC(N2C(=O)c3cccc(SCCCCCCNC45CC6CC(CC(C6)C4)C5)c3C2=O)C(=O)N1 (stereo not shown) [SIAIS1222109, 4-((6-((adamantan-1-yl)amino)hexyl)thio)-2-(2,6-dioxopiperidin-3-yl)isoindoline-1,3-dione] | 0.404 nM |
| O=C1CCC(N2Cc3c(SCCCCCCCNC4CCC4)cccc3C2=O)C(=O)N1 (stereo not shown) [SIAIS1222115, 3-(4-((7-(cyclobutylamino)heptyl)thio)-1-oxoisoindolin-2-yl)piperidine-2,6-dione] | 0.182 nM |
| O=C1CCC(N2Cc3c(SCCCCCCCNC4CCCC4)cccc3C2=O)C(=O)N1 (stereo not shown) [SIAIS1222117, 3-(4-((7-(cyclopentylamino)heptyl)thio)-1-oxoisoindolin-2-yl)piperidine-2,6-dione] | 0.123 nM |
| CC(NCCCCCCSc1cccc2c1CN(C1CCC(=O)NC1=O)C2=O)C12CC3CC(CC(C3)C1)C2 (stereo not shown) [SIAIS1222139, 3-(4-((6-((1-(adamantan-1-yl)ethyl)amino)hexyl)thio)-1-oxoisoindolin-2-yl)piperidine-2,6-dione] | 0.131 nM |
| O=C1CCC(N2Cc3c(SCCCCCCCNC45CC6CC(CC(O)(C6)C4)C5)cccc3C2=O)C(=O)N1 (stereo not shown) [SIAIS1222141] | 0.342 nM |
| O=C1CCC(N2Cc3c(SCCCCCCNC(=O)C45CC6CC(CC(C6)C4)C5)cccc3C2=O)C(=O)N1 (stereo not shown) [SIAIS1222143, N-(6-((2-(2,6-dioxopiperidin-3-yl)-1-oxoisoindolin-4-yl)thio)hexyl)adamantane-1-carboxamide] | 0.07 nM |
| O=C1CCC(N2Cc3c(SCCCCCCNCC4CCCCC4)cccc3C2=O)C(=O)N1 (stereo not shown) [SIAIS1222147, 3-(4-((6-((cyclohexylmethyl)amino)hexyl)thio)-1-oxoisoindolin-2-yl)piperidine-2,6-dione] | 0.083 nM |
| O=C1CCC(N2Cc3c(SCCC45CC6CC(CC(C6)C4)C5)cccc3C2=O)C(=O)N1 (stereo not shown) [SIAIS1222173, 3-(4-((2-(adamantan-1-yl)ethyl)thio)-1-oxoisoindolin-2-yl)piperidine-2,6-dione] | 0.42 nM |
| O=C1CCC(N2Cc3c(SCCCNC45CC6CC(CC(C6)C4)C5)cccc3C2=O)C(=O)N1 (stereo not shown) [SIAIS1222177, 3-(4-((3-(adamantan-1-ylamino)propyl)thio)-1-oxoisoindolin-2-yl)piperidine-2,6-dione] | 0.693 nM |
| O=C1CCC(N2Cc3c(SCCCCNC45CC6CC(CC(C6)C4)C5)cccc3C2=O)C(=O)N1 (stereo not shown) [SIAIS1222179, 3-(4-((4-((adamantan-1-yl)amino)butyl)thio)-1-oxoisoindolin-2-yl)piperidine-2,6-dione] | 0.074 nM |
| O=C1CCC(N2C(=O)c3cccc(SCCCCCCCNC4CC5(CCC5)C4)c3C2=O)C(=O)N1 (stereo not shown) [SIAIS1224015, 2-(2,6-dioxopiperidin-3-yl)-4-((7-(spiro[3.3]heptan-2-ylamino)heptyl)thio)isoindoline-1,3-dione] | 0.691 nM |
| O=C1CCC(N2Cc3c(SCCCCCCCNC(C4CC4)C4CC4)cccc3C2=O)C(=O)N1 (stereo not shown) [SIAIS1224031, 3-(4-((7-((dicyclopropylmethyl)amino)heptyl)thio)-1-oxoisoindolin-2-yl)piperidine-2,6-dione] | 0.105 nM |
| O=C1CCC(N2Cc3c(SCCCCCCCN4Cc5ccccc5C4)cccc3C2=O)C(=O)N1 (stereo not shown) [SIAIS1224033, 3-(4-((7-(isoindolin-2-yl)heptyl)thio)-1-oxoisoindolin-2-yl)piperidine-2,6-dione] | 0.082 nM |
| O=C1CCC(N2Cc3c(SCCCCCCCN[C@@H]4CN5CCC4CC5)cccc3C2=O)C(=O)N1 (stereo partly drawn) [SIAIS1224035, 3-(1-oxo-4-((7-(((S)-quinuclidin-3-yl)amino)heptyl)thio)isoindolin-2-yl)piperidine-2,6-dione] | 15.1 nM |
| O=C1CCC(N2Cc3c(SCCCCCCCN[C@H]4CN5CCC4CC5)cccc3C2=O)C(=O)N1 (stereo partly drawn) [SIAIS1224037, 3-(1-oxo-4-((7-(((R)-quinuclidin-3-yl)amino)heptyl)thio)isoindolin-2-yl)piperidine-2,6-dione] | 14 nM |
| CS(=O)(=O)N1CCN(CCCCCCCSc2cccc3c2CN(C2CCC(=O)NC2=O)C3=O)CC1 (stereo not shown) [SIAIS1224039, 3-(4-((7-(4-(methylsulfonyl)piperazin-1-yl)heptyl)thio)-1-oxoisoindolin-2-yl)piperidine-2,6-dione] | 0.54 nM |
| O=C1CCC(N2Cc3c(SCc4ccc(CN5CCSCC5)cc4)cccc3C2=O)C(=O)N1 (stereo not shown) [SIAIS1224089, 3-(1-oxo-4-((4-(thiomorpholinomethyl)benzyl)thio)isoindolin-2-yl)piperidine-2,6-dione] | 0.144 nM |
| CN1C(=O)CCC(N2Cc3c(SCc4ccc(CN5CCCCC5)cc4)cccc3C2=O)C1=O (stereo not shown) [SIAIS1224101, 1-methyl-3-(1-oxo-4-((4-(piperidin-1-ylmethyl)benzyl)thio)isoindolin-2-yl)piperidine-2,6-dione] | 287 nM |
| O=C1CCC(N2Cc3c(SCCc4ccc(CCN5CCCCC5)cc4)cccc3C2=O)C(=O)N1 (stereo not shown) [SIAIS1224117, 3-(1-oxo-4-((4-(2-(piperidin-1-yl)ethyl)phenethyl)thio)isoindolin-2-yl)piperidine-2,6-dione] | 0.19 ± 0.01 nM |
| O=C1CCC(N2Cc3c(SCCc4ccc(CCNC56CC7CC(CC(C7)C5)C6)cc4)cccc3C2=O)C(=O)N1 (stereo not shown) [SIAIS1224121, 3-(4-((4-(2-((adamantan-1-yl)amino)ethyl)phenethyl)thio)-1-oxoisoindolin-2-yl)piperidine-2,6-dione] | 0.48 ± 0.05 nM |
| O=C1CCC(N2Cc3c(SCCc4ccc(CNC56CC7CC(CC(C7)C5)C6)cc4)cccc3C2=O)C(=O)N1 (stereo not shown) [SIAIS1224149, 3-(4-((4-(((adamantan-1-yl)amino)methyl)phenethyl)thio)-1-oxoisoindolin-2-yl)piperidine-2,6-dione] | 0.44 ± 0.1 nM |
| O=C1CCC(N2C(=O)c3cccc(SCCc4ccc(CNC56CC7CC(CC(C7)C5)C6)cc4)c3C2=O)C(=O)N1 (stereo not shown) [SIAIS1224151, 4-((4-(((adamantan-1-yl)amino)methyl)phenethyl)thio)-2-(2,6-dioxopiperidin-3-yl)isoindoline-1,3-dione] | 3.41 nM |
| O=C1CCC(N2Cc3c(SCc4ccc(/C=C/Br)cc4)cccc3C2=O)C(=O)N1 (stereo not shown) [SIAIS1224154, (E)-3-(4-((4-(2-bromovinyl)benzyl)thio)-1-oxoisoindolin-2-yl)piperidine-2,6-dione] | 0.809 nM |

Now those with a lower IC50, led by results:

| IC50 | Compound |
| --- | --- |
| 0.05 nM | O=C1CCC(N2Cc3c(SCCCCCCCN4C[C@H]5CCCC[C@H]5C4)cccc3C2=O)C(=O)N1 (stereo partly drawn) [SIAIS1222107, 3-(4-((7-((3aR,7aS)-hexahydro-1H-isoindol-2(3H)-yl)heptyl)thio)-1-oxoisoindolin-2-yl)piperidine-2,6-dione] |
| 0.053 nM | O=C1CCC(N2Cc3c(SCCCCCCCNC45CC(C4)C5)cccc3C2=O)C(=O)N1 (stereo not shown) [SIAIS1222123, 3-(4-((7-(bicyclo[1.1.1]pentan-1-ylamino)heptyl)thio)-1-oxoisoindolin-2-yl)piperidine-2,6-dione] |
| 0.043 nM | O=C1CCC(N2Cc3c(SCCCCCCNC(=O)C45CC6CC(CC(Cl)(C6)C4)C5)cccc3C2=O)C(=O)N1 (stereo not shown) [SIAIS1222145, 3-chloro-N-(6-((2-(2,6-dioxopiperidin-3-yl)-1-oxoisoindolin-4-yl)thio)hexyl)adamantane-1-carboxamide] |
| 0.04 nM | CC(NCc1ccc(CSc2cccc3c2CN(C2CCC(=O)NC2=O)C3=O)cc1)C12CC3CC(CC(C3)C1)C2 (stereo not shown) [SIAIS1222157, 3-(4-((4-(((1-(adamantan-1-yl)ethyl)amino)methyl)benzyl)thio)-1-oxoisoindolin-2-yl)piperidine-2,6-dione] |
| 0.05 nM | O=C1CCC(N2Cc3c(SCc4ccc(CNC5CC6(CCC6)C5)cc4)cccc3C2=O)C(=O)N1 (stereo not shown) [SIAIS1222159, 3-(1-oxo-4-((4-((spiro[3.3]heptan-2-ylamino)methyl)benzyl)thio)isoindolin-2-yl)piperidine-2,6-dione] |
| 0.035 nM | O=C1CCC(N2Cc3c(SCc4ccc(CNC56CC(C5)C6)cc4)cccc3C2=O)C(=O)N1 (stereo not shown) [SIAIS1222161, 3-(4-((4-((bicyclo[1.1.1]pentan-1-ylamino)methyl)benzyl)thio)-1-oxoisoindolin-2-yl)piperidine-2,6-dione] |
| 0.005 nM | O=C1CCC(N2Cc3c(SCc4ccc(CNCC5CCCCC5)cc4)cccc3C2=O)C(=O)N1 (stereo not shown) [SIAIS1222187, 3-(4-((4-(((cyclohexylmethyl)amino)methyl)benzyl)thio)-1-oxoisoindolin-2-yl)piperidine-2,6-dione] |
| 0.046 nM | O=C1CCC(N2Cc3c(SCCCCCCCN4CCC5(CC4)CC5)cccc3C2=O)C(=O)N1 (stereo not shown) [SIAIS1222195, 3-(4-((7-(6-azaspiro[2.5]octan-6-yl)heptyl)thio)-1-oxoisoindolin-2-yl)piperidine-2,6-dione] |
| 0.062 nM | O=C1CCC(N2Cc3c(SCCCCCCCNCC4CCCCC4)cccc3C2=O)C(=O)N1 (stereo not shown) [SIAIS1222199, 3-(4-((7-((cyclohexylmethyl)amino)heptyl)thio)-1-oxoisoindolin-2-yl)piperidine-2,6-dione] |
| 0.048 nM | O=C1CCC(N2Cc3c(SCc4ccc(CNCC5CCCCO5)cc4)cccc3C2=O)C(=O)N1 (stereo not shown) [SIAIS1224019, 3-(1-oxo-4-((4-((((tetrahydro-2H-pyran-2-yl)methyl)amino)methyl)benzyl)thio)isoindolin-2-yl)piperidine-2,6-dione] |
| 0.046 nM | O=C1CCC(N2Cc3c(SCCCCCCCN4CCSCC4)cccc3C2=O)C(=O)N1 (stereo not shown) [SIAIS1224125, 3-(1-oxo-4-((7-thiomorpholinoheptyl)thio)isoindolin-2-yl)piperidine-2,6-dione] |
| 0.024 ± 0.002 nM | O=C1CCC(N2Cc3c(SCc4ccc(CCN5CCCCC5)cc4)cccc3C2=O)C(=O)N1 (stereo not shown) [SIAIS1224153, 3-(1-oxo-4-((4-(2-(piperidin-1-yl)ethyl)benzyl)thio)isoindolin-2-yl)piperidine-2,6-dione] |
